In patent publication US4789587A, “(1,3-dioxolan-2-yl-methyl)-1H-imidazoles as bactericidal and/or fungicidal agents” (IRE-Celltarg, S.A., priority 1986, dated 1988):
Converted amounts (≈) assume the structure as drawn. Where two headings read alike, the source gives them in different places.

Assays:
[1] = tested on: Candida tropicalis ATCC 13803; assay: minimum fungicidal concentration, subculture on YM agar, C. tropicalis; assay type: cell-based
Protocol: (§1) The activity of the new derivatives according to the invention was tested in vitro by determining the minimum inhibiting concentration (MIC) of the molecules and their fungicidal (minimum fungicidal concentration MFC) or bactericidal (minimum bactericidal concentration MBC) activity. MFC and MBC are defined as the minimum dose which kills 99.9% of the organisms contained in the inoculum. Two species of yeasts pathogenic to man were used: Candida albicans ATCCe 10231 and Candida tropicalis ATCC 13803. Two species of bacteria were included in the screening: Staphylococcus aureus ATCC 25923 and Salmonella typhimurium LT2, strain Demerec. The MIC is determined after culturing overnight in a liquid medium, by the microtitration method in dishes containing 96 wells over a concentration range of 100 μM to 0.0008 μM. The inoculum contains 10^5 to 10^6 organisms/ml. The culture media consist on the one hand of RPMI to which 20% of foetal calf serum (inactivated for one hour at 56°) has been added in order to determine the fungistatic activity and Mueller-Hinton agar in order to determine the bacteriostatic power of the newly synthesized molecules on the other. The MFC and MBC for each of these molecules are obtained by subculturing a sample containing 10^3 organisms from each well giving negative results for the growth of the organisms, in a solid medium consisting of YM agar (yeasts) or Mueller-Hinton agar (bacteria) overnight at 37°.

[2] = tested on: Candida tropicalis ATCC 13803; assay: minimum inhibiting concentration, microtitration in liquid medium, C. tropicalis; assay type: cell-based; conditions: ATCC13803, RPMI + 20% foetal calf serum, overnight, inoculum 10^5 to 10^6 organisms/ml
Protocol: as §1

[3] = tested on: Candida albicans ATCCe 10231; assay: minimum fungicidal concentration, subculture on YM agar, C. albicans; assay type: cell-based
Protocol: as §1

[4] = tested on: Candida albicans ATCCe 10231; assay: minimum inhibiting concentration, microtitration in liquid medium, C. albicans; assay type: cell-based; conditions: ATCCE10231, RPMI + 20% foetal calf serum, overnight, inoculum 10^5 to 10^6 organisms/ml
Protocol: as §1

[5] = tested on: Salmonella typhimurium LT2, strain Demerec; assay: minimum inhibiting concentration, microtitration in liquid medium, S. typhimurium; assay type: cell-based; conditions: Salmonella enterica, read-out: MIC S. typhimurium
Protocol: as §1

[6] = tested on: Staphylococcus aureus ATCC 25923; assay: minimum inhibiting concentration, microtitration in liquid medium, S. aureus; assay type: cell-based
Protocol: as §1

[7] = tested on: Leydig tumor cells from mice (I-10, ATCC No. CCL83); assay: in vitro synthesis of steroids: 20α-hydroxy-4-pregnen-3-one secretion by Leydig tumor cells induced by cAMP; assay type: cell-based; conditions: for 20α-OH-4-pregnen-3-one (1): dibutyryl-cAMP 1×10^-4 M, 3 hours incubation with compound, control 1744, basal 785; for activity at 0.94 µM: Mus musculus, Leydig, read-out: 20α-OH-4-pregnen-3-one (2) % enzyme activity relative to control
Description: (§2) Ketoconazole and its derivatives reduce the plasma levels of testosterone by inhibiting certain enzymes involved in its biogenesis. Progesterone is a key intermediate in the biogenesis of steroid hormones as it leads especially to estradiol in the ovary and to testosterone in the testicles. The inhibiting power of ketoconazole and its derivatives on the enzyme chain for the biogenesis of steroid hormones may be assessed by measuring the conversion of cholesterol into progesterone. A method of determination which enables this property to be quantified is described below.
(§3) Leydig tumor cells from mice (I-10, ATCC No. CCL83) were grown in a HAM's F10 medium to which 15% of horse serum and 2.5% of foetal calf serum were added. These cells have the property of secreting progesterone and a product of reduction of the latter which is no longer metabolized, 20α-hydroxy-4-pregnen-3-one. This secretion of steroids is induced by the addition of cAMP in the form of its dibutyryl ester (N^6, O^2' -dibutyryladenosine 3', 5'-cyclic monophosphate sodium salt monohydrate (Sigma)). The cells are subcultured in 25 cm^2 falcon dishes and maintained under CO2 (10%). When these become confluent (±1 mg/ml proteins) the medium is replaced with fresh medium containing dibutyryl-cAMP (1×10^-4 M). After incubating for 1 hour with the cAMP, the ketoconazole or its derivatives are added (9.4×10^-7 M) to the culture medium. After incubating for a further period of 3 hours, the supernatants are collected and will be used for the analysis of steroids by HPLC. The cells are rinsed with PBS (phosphate buffered saline: NaCl 0.15M, KCl 2.7 mM, Na2 HPO4 -KH2 PO4 3 mM pH 7.4) and after treating with DOC (deoxycholic acid), the determination of proteins is carried out by the Lowry method.
(§4) For the determination of steroids, 2 ml of the culture medium are brought into contact with 5 ml of ether. The tubes are vortexed for 2 minutes. After freezing the aqueous phases in an isopropanol/solid carbon dioxide bath, the ether phase is collected and the ether is evaporated off under a stream of nitrogen at 30° C. The dry extract is then diluted in 150 μl of water and 150 μl of acetonitrile and centrifuged at 13,000 rpm for 10 minutes. 30 μl of the supernatant are injected into HPLC on a 4 mm diameter, 30 cm long μBondapack C18 column (WATERS). The mobile phase consists of 38% of water, 31% acetonitrile and 31% methanol. The flowrate is 2 ml/min and readings are taken at 245 nm.

[8] = tested on: Leydig tumor cells from mice (I-10, ATCC No. CCL83); assay: in vitro synthesis of steroids: progesterone secretion by Leydig tumor cells induced by cAMP; assay type: cell-based; conditions: for Progesterone (1): dibutyryl-cAMP 1×10^-4 M, 3 hours incubation with compound, control 3546, basal 554; for progesterone secretion, % of cAMP-induced control at 0.94 µM: Mus musculus, Leydig, read-out: Progesterone (2) % enzyme activity relative to control
Description: as §2, §3, §4

[9] = tested on: Staphylococcus aureus ATCC 25923; assay: minimum bactericidal concentration, subculture on Mueller-Hinton agar, S. aureus; assay type: cell-based
Protocol: as §1

[10] = resorption: plasma concentration in rats after gastric administration; assay type: in vivo; conditions: rat, po, 1000 umol/kg, 100 μmols/0.5 ml of DMSO per 100 g of body weight, Candida tropicalis inhibition zones vs ketoconazole standard curve, read-out: plasma concentration of the antifungal product
Protocol: 100 μmols/0.5 ml of DMSO per 100 g of body weight of either ketoconazole (reference product) or oleylketoconazole (compound No. 7) are administered to rats by the gastric route. The animals are sacrificed with CO2, 1 h after the administration. Blood is sampled by cardiac puncture and centrifuged for 15 minutes at 2000 rpm to obtain the plasma.
A series of dilutions of the plasma samples are prepared in a 0.9% NaCl solution, diluting twice each time. 10 μl are sampled from each dilution and deposited on Whatman paper discs. The discs are placed in Petri dishes containing 15 ml of casitone agar covered with a layer containing 3 ml of a less dense agar mixed with 0.1 ml of an overnight culture of Candida tropicalis. After incubating overnight the growth inhibition zones around the disks are measured and compared with a standard curve prepared with ketoconazole under the same conditions.

[11] = tested on: Salmonella typhimurium LT2, strain Demerec; assay: minimum bactericidal concentration, subculture on Mueller-Hinton agar, S. typhimurium; assay type: cell-based; conditions: Salmonella enterica, minimum dose which kills 99.9% of the organisms (MBC), overnight at 37°, read-out: MFC S. typhimurium
Protocol: as §1, with “The MFC and MBC for each of these molecules are obtained by subculturing a sample containing 10^3 organisms from each well giving negative results for the growth of the organisms, in a solid medium consisting of YM agar (yeasts) or Mueller-Hinton agar (bacteria) overnight at 37°.” left out

[12] = ATCC13803, minimum dose which kills 99.9% of the organisms, YM agar, overnight at 37°, read-out: MFC C. tropicalis
[13] = ATCCE10231, minimum dose which kills 99.9% of the organisms, YM agar, overnight at 37°, read-out: MFC C. albicans
[14] = ATCC25923, read-out: MIC S. aureus
[15] = 9.4×10^-7 M, relative to cells induced by cAMP in the absence of inhibitor
[16] = ATCC25923, Mueller-Hinton, overnight, inoculum 10^5 to 10^6 organisms/ml, read-out: MIC S. aureus
[17] = ATCC25923, minimum dose which kills 99.9% of the organisms (MBC), overnight at 37°, read-out: MFC S. aureus
[18] = Mueller-Hinton, overnight, inoculum 10^5 to 10^6 organisms/ml

Structure (SMILES)	MFC [1, 12] [µM]	MIC [2] [µM]	MFC [3, 13] [µM]	MIC [4] [µM]	20α-OH-4-pregnen-3-one (1) ([7]; 9.4×10^-7 M)	Progesterone (1) ([8]; 9.4×10^-7 M)	activity at 0.94 µM [7, 15] [%]	progesterone secretion, % of cAMP-induced control at 0.94 µM [8, 15] [%]	MIC [6, 16] [µM]	MBC [9, 17] [µM]	also measured
CC(=O)NCC(=O)N1CCN(c2ccc(OCC3COC(Cn4ccnc4)(c4ccc(Cl)cc4Cl)O3)cc2)CC1 (stereo not drawn) [No. 6, Cis-4-[A]-1-(N-acetylglycyl)piperazine]	12.5 (≈ 7.36 µg/mL)	0.78	6.25 (≈ 3.68 µg/mL)	3.13							
Clc1ccc(C2(Cn3ccnc3)OCC(COc3ccc(N4CCNCC4)cc3)O2)c(Cl)c1 (stereo not drawn) [Cis-1-[A]-piperazine, reference compound]					1461 ng of steroids/mg of cell prot	2783 ng of steroids/mg of cell prot					MIC [5]: > 100 µM; MIC [6, 14]: 3.65 µM (≈ 1.79 µg/mL); activity at 0.94 µM [7]: 84%; MFC ([1]; ATCC13803, read-out: MFC C. tropicalis): 1.58 µM (≈ 0.773 µg/mL); progesterone secretion, % of cAMP-induced control at 0.94 µM [8]: 78%; MFC ([3]; ATCCE10231, read-out: MFC C. albicans): 2.35 µM (≈ 1.15 µg/mL); MBC ([9]; ATCC25923, read-out: MFC S. aureus, minimum dose which kills 99.9% of the organisms (MBC), overnight at 37°): 25 µM (≈ 12.2 µg/mL)
CC(N)C(=O)N1CCN(c2ccc(OCC3COC(Cn4ccnc4)(c4ccc(Cl)cc4Cl)O3)cc2)CC1 (stereo not drawn) [No. 2, Cis-4-[A]-1-(alanyl)piperazine]		0.006		0.006	1299 ng of steroids/mg of cell prot	1939 ng of steroids/mg of cell prot	74	55			
NCC(=O)N1CCN(c2ccc(OCC3COC(Cn4ccnc4)(c4ccc(Cl)cc4Cl)O3)cc2)CC1 (stereo not drawn) [No. 1, Cis-4-[A]-1-(glycyl)piperazine]	1.3 (≈ 0.71 µg/mL)	0.119	2.38 (≈ 1.3 µg/mL)	0.16					12 (≈ 6.55 µg/mL)	25 (≈ 13.7 µg/mL)	
O=C(O)CCC(=O)N1CCN(c2ccc(OCC3COC(Cn4ccnc4)(c4ccc(Cl)cc4Cl)O3)cc2)CC1 (stereo not drawn) [No. 4, Cis-4-[A]-1(succinyl)piperazine]	50 (≈ 29.5 µg/mL)	15.2	25 (≈ 14.7 µg/mL)	19.8					50.8 (≈ 29.9 µg/mL)	> 100	
Clc1ccc(COC(Cn2ccnc2)c2ccc(Cl)cc2Cl)c(Cl)c1 (stereo not shown) [Miconazole, reference compound]											MIC [6, 14]: 1.56 µM (≈ 0.649 µg/mL)
NC(Cc1ccccc1)C(=O)N1CCN(c2ccc(OCC3COC(Cn4ccnc4)(c4ccc(Cl)cc4Cl)O3)cc2)CC1 (stereo not drawn) [No. 10, Cis-4-[A]-1-(phenylalanyl)piperazine]					605 ng of steroids/mg of cell prot	323 ng of steroids/mg of cell prot	35	9			
O=C(O)CCC(=O)NCC(=O)N1CCN(c2ccc(OCC3COC(Cn4ccnc4)(c4ccc(Cl)cc4Cl)O3)cc2)CC1 (stereo not drawn) [No. 5, Cis-4-[A]-1-(N-succinylglycyl)piperazine]		25		25					50 (≈ 32.3 µg/mL)		
CCCCCCCCC=CCCCCCCCC(=O)N1CCN(c2ccc(OCC3COC(Cn4ccnc4)(c4ccc(Cl)cc4Cl)O3)cc2)CC1 (stereo not shown) [No. 7]	250 (≈ 188 µg/mL)	8.78	125 (≈ 94.2 µg/mL)	10.2	1497 ng of steroids/mg of cell prot	2754 ng of steroids/mg of cell prot	86	78	> 100	> 100	MIC [5, 18]: > 100 µM; concentration at 1 h [10]: 57.3 µM
CC(C)CC(N)C(=O)N1CCN(c2ccc(OCC3COC(Cn4ccnc4)(c4ccc(Cl)cc4Cl)O3)cc2)CC1 (stereo not drawn) [No. 9, Cis-4-[A]-1-(leucyl)piperazine]					1725 ng of steroids/mg of cell prot	2231 ng of steroids/mg of cell prot	99	63			
CC(=O)N1CCN(c2ccc(OCC3COC(Cn4ccnc4)(c4ccc(Cl)cc4Cl)O3)cc2)CC1 (stereo not shown) [Ketoconazole, reference compound]	4.88 (≈ 2.59 µg/mL)	0.049	0.22 (≈ 0.117 µg/mL)	0.053	1296 ng of steroids/mg of cell prot	1878 ng of steroids/mg of cell prot	74	53	20.4 (≈ 10.9 µg/mL)	50 (≈ 26.6 µg/mL)	MIC [5, 18]: > 100 µM; MBC [11]: > 100 µM
CCCCCCCCC=CCCCCCCCC(=O)NCC(=O)N1CCN(c2ccc(OCC3COC(Cn4ccnc4)(c4ccc(Cl)cc4Cl)O3)cc2)CC1 (stereo not drawn) [No. 8, Cis-4-[A]-1-(N-oleylglycyl)piperazine]	> 100	53.1	62.5 (≈ 50.7 µg/mL)	31.2							
NCC(=O)NCC(=O)N1CCN(c2ccc(OCC3COC(Cn4ccnc4)(c4ccc(Cl)cc4Cl)O3)cc2)CC1 (stereo not drawn) [No. 3, Cis-4-[A]-1-(N-glycylglycyl)piperazine]		0.48		0.48							
